{
  "source": "patent US20070243137A1",
  "about": "“Cell and sub-cell methods for imaging and therapy” (priority 2006, published 2007)",
  "key": {"[1]": {"conditions": "in vivo; cited from earlier work"}, "[2]": {"assay": "MRI imaging (1.5 Tesla, T1) of rat bearing subcutaneous F98 glioma tumor after intravenous injection", "type": "in vivo", "procedure": "A male rat bearing a subcutaneous F98 glioma tumor in its thigh was anesthetized and a catheter inserted into the femoral vein. The animal was then placed in a 1.5 Tesla clinical MRI scanner with a head coil around it. T1 images were acquired before injection. The sample in example 2 was used without further purification, and an amount was injected, corresponding to a dose of 0.1 mmol Gd/kg, which is the recommended dose/weight for gadodiamide use in vivo. Images were acquired using both T1 and T2 modes. […] For comparison, a rat bearing a similar tumor was injected with 0.1 mmol gadodiamide/kg. […] Many of the smaller vesicles filtered through the kidneys, since at 30 min post injection not only was contrast seen in the urine in the bladder (as also seen with the gadodiamide only preparation), but high contrast was seen on the surface of the urine in the bladder. This may be explained by the lower density of the lipid-containing vesicles, allowing them to float on the surface. […] It should be noted that whatever the fate of the contrast agent is, only an FDA approved standard amount was injected, and should not cause any toxic effects."}, "[3]": {"conditions": "abdominal aorta, 10 min after injection"}, "[4]": {"conditions": "hepatic portal vein, 10 min after injection"}, "[5]": {"conditions": "inferior vena cava, 10 min after injection"}},
  "note": "Where “and” joins values, the source holds several entries; their conditions need not be identical. Equal values may be shown once.",
  "data": [
    {"smiles": "O=C([O-])CN(CCN(CC(=O)[O-])CC(=O)O)CCN(CC(=O)[O-])CC(=O)O.[Gd+3]", "note": "[Gd-DTPA, gadolinium diethytriaminepentaacetic acid]", "values": [
      {"measurement": "blood half-life", "setting": "[1]", "value": "~20", "unit": "min"}
    ]},
    {"smiles": "CNC(=O)CN(CCN(CCN(CC(=O)[O-])CC(=O)NC)CC(=O)[O-])CC(=O)[O-].[Gd+3]", "note": "[gadodiamide, Gadolinium diethylenetriaminepentaacetic acid bismethyl-amide]", "values": [
      {"measurement": "blood half-life", "setting": "[1]", "value": "~20", "unit": "min"},
      {"measurement": "maximal tumor contrast relative to rat given vesicle-loaded gadodiamide", "setting": "[2]; 0.1 mmol gadodiamide/kg, rat with similar tumor", "value": "approximately one-half"},
      {"measurement": "After injection (HU), tumor", "setting": "[2]; F98 glioma tumor in thigh, 10 min after i.v. injection, 0.1 mmol Gd/kg", "value": "828±82 HU and 828 HU"},
      {"measurement": "After injection (HU), Abdominal Aorta", "setting": "[2]; abdominal aorta, 10 min after i.v. injection, 0.1 mmol Gd/kg", "value": "627±76 HU and 627 HU"},
      {"measurement": "Contrast change (HU), Abdominal Aorta", "setting": "[2]; [3]", "value": 9, "unit": "HU"},
      {"measurement": "Percent change, Abdominal Aorta", "setting": "[2]; [3]", "value": 1, "unit": "%"},
      {"measurement": "After injection (HU), Heart", "setting": "[2]; heart, 10 min after i.v. injection, 0.1 mmol Gd/kg, T1", "value": "540±137 HU and 540 HU"},
      {"measurement": "Contrast change (HU), Heart", "setting": "[2]; heart, 10 min after injection", "value": 91, "unit": "HU"},
      {"measurement": "Percent change, Heart", "setting": "[2]; heart, 10 min after injection", "value": 20, "unit": "%"},
      {"measurement": "After injection (HU), hepatic portal vein", "setting": "[2]; hepatic portal vein, 10 min after i.v. injection, 0.1 mmol Gd/kg", "value": "774±47 HU and 774 HU"},
      {"measurement": "Contrast change (HU), hepatic portal vein", "setting": "[2]; [4]", "value": 96, "unit": "HU"},
      {"measurement": "Percent change, hepatic portal vein", "setting": "[2]; [4]", "value": 14, "unit": "%"},
      {"measurement": "After injection (HU), Inferior vena cava", "setting": "[2]; inferior vena cava, 10 min after i.v. injection, 0.1 mmol Gd/kg", "value": "770±49 HU and 770 HU"},
      {"measurement": "Contrast change (HU), Inferior vena cava", "setting": "[2]; [5]", "value": 10, "unit": "HU"},
      {"measurement": "Percent change, Inferior vena cava", "setting": "[2]; [5]", "value": 1, "unit": "%"},
      {"measurement": "After injection (HU), Kidney", "setting": "[2]; kidney, 10 min after i.v. injection, 0.1 mmol Gd/kg", "value": "1411±136 HU and 1411 HU"},
      {"measurement": "Contrast change (HU), Kidney", "setting": "[2]; kidney, 10 min after injection", "value": 848, "unit": "HU"},
      {"measurement": "Percent change, Kidney", "setting": "[2]; kidney, 10 min after injection", "value": 151, "unit": "%"},
      {"measurement": "After injection (HU), Liver", "setting": "[2]; liver, 10 min after i.v. injection, 0.1 mmol Gd/kg", "value": "831±27 HU and 804±58 HU and 831 HU"},
      {"measurement": "Contrast change (HU), Liver", "setting": "[2]; liver, 10 min after injection", "value": 16, "unit": "HU"},
      {"measurement": "Percent change, Liver", "setting": "[2]; liver, 10 min after injection", "value": 2, "unit": "%"},
      {"measurement": "vascular contrast in T1 mode", "setting": "[2]; minutes after injection up to 20 minutes or more, 0.1 mmol/kg", "value": "not significantly contrasted"},
      {"measurement": "Contrast change (HU), tumor", "setting": "[2]; tumor, 10 min after injection", "value": 321, "unit": "HU"},
      {"measurement": "Percent change, tumor", "setting": "[2]; tumor, 10 min after injection", "value": 63, "unit": "%"}
    ]}
  ]
}
